Read-outs that look alike come from different tables or passages of the source. Peptide text beside a SMILES is read from it. * marks the point of attachment. βNA = c1ccc2cc(N*)ccc2c1
Assays:
[1] = tested on: LTA; assay: LTA quantification by Western blot; type: cell-based, Staphylococcus aureus; settings: strain LAC, 1× and 4× the MIC
Description: Overnight cultures of S. aureus strains were diluted 1:200 in fresh TSB and grown to an optical density of OD600nm 0.3. […] Vancomycin and daptomycin at 1× and 4× MIC were also included as control antibiotics. Cells were then normalized to have 10 mL of OD600nm 0.6, pelleted at 4000 rpm, and resuspended in 300 μL of PBS containing 200 μg/mL lysostaphin. This suspension was then incubated at 37 °C for 45 min to allow digestion of the cell wall to occur. One hundred microlitres of 4× SDS sample buffer were then added, and the mixture was boiled at 95 °C for 20 min. The insoluble material was then removed by pelleting at 16,000 rpm for 10 min. The supernatant containing LTA was then subjected to SDS-PAGE on a 4–20% Tris-glycine gel (Bio-Rad). The gel was transferred onto a PVDF membrane using a Trans-Blot Turbo Transfer System (Bio-Rad). The membrane was blocked overnight in TBST containing 5% semi-skimmed milk before being incubated with a mouse anti-LTA antibody (Hycult; HM2048; 1:2000 dilution) followed by a goat antimouse-HRP secondary antibody (Proteintech; SA00001; 1:2000 dilution) before being visualized using an Amersham-ECL kit (Cytiva).

[2] = tested on: E. coli strain K12; assay: Growth inhibition in combination with PAβN; type: cell-based, Escherichia coli; settings: PAβN alone up to 100 μg/mL
Description: Phenylalanine-arginine β-naphthylamide (PAβN) is a well-studied efflux pump inhibitor, which can also permeabilize the outer membrane of Gram-negative organisms.[40] […] Without the addition of PAβN (0 μg/mL), neither 1771 nor 13 had any growth inhibitory activity at concentrations up to 64 μg/mL. With the addition of 25 μg/mL of PAβN, the E. coli strain K12 could still grow in the presence of 64 μg/mL of 1771 or 13; however, the growth rate was severely impacted in a dose-dependent manner. […] To further evaluate the Gram-negative coverage of 1771 and 13, we also tested 1771 or 13 in combination with PAβN against Pseudomonas aeruginosa strain PAO1, Klebsiella pneumoniae strain 699 (clinical isolate), and Acinetobacter baumannii strain DF1000 (clinical isolate) (Figure S6a–c).
Figure 8 Permeabilization of the outer membrane renders E. coli susceptible to 1771 and 13. Bacterial growth curves of (a) 1771 and (b) 13 (0–64 μg/mL) in combination with 0, 25, 50, and 100 μg/mL of PAβN. The bacterial growth (OD600nm) was plotted against time following 18 h of growth at 37 °C. The icons represent the mean of three biological replicates.

[3] = tested on: S. epidermidis strain RP62A; assay: Biofilm prevention, crystal violet assay; type: cell-based, Staphylococcus epidermidis; settings: 24 h
Description: (§1) An indication of the biofilm prevention capabilities of 1771 and its derivatives 9–14 was achieved through the application of the crystal violet assay. S. aureus strain SH1000 and S. epidermidis strain RP62A were used, as they are strong biofilm formers. Overnight cultures were diluted 1:200 in fresh TSB containing 0.5% glucose (TSB-G), and 100 μL was added to individual wells in a 96-well microtiter plate. One hundred microliters of 1771 and 9–14 were diluted in TSB-G and added to bacteria at a final concentration ranging from 256 to 0.25 μg/mL with subsequent incubation for 24 h at 37 °C in a static incubator. Following incubation, biofilms were washed four times with ddH2O before being stained with 150 μL of 0.1% crystal violet for 30 min at room temperature. Following a further four washes in ddH2O, wells were resuspended in 200 μL of 7% acetic acid. The absorbance intensity of the crystal violet was measured at abs595nm in a Sunrise plate reader. Biomass formed was measured as a percentage of the no-compound control.

[4] = tested on: S. aureus; assay: MIC, broth microdilution (CLSI); type: cell-based, Staphylococcus aureus; settings: for fold increase in the MIC when compared to 1771: S. aureus and S. epidermidis strains; for MIC: Staphylococcus aureus, read-out: minimum inhibitory concentration
Description: (§2) S. aureus, S. epidermidis, E. faecalis, and E. faecium strains were routinely cultivated on tryptic soy agar (TSA) and grown for 18 h at 37 °C. S. aureus single colonies were subsequently transferred into 2 mL of tryptic soy broth (TSB) and grown for a further 18 h at 37 °C while being shaken at 180 rpm. S. pyogenes, S. agalactiae, and S. dysgalactiae strains were routinely cultured on TSA supplemented with 5% sheep blood and grown for 18 h at 37 °C with 5% CO2. E. coli was grown in LB broth at 37 °C. For LtaS-deficient strains, TSB was supplemented with 0.5 M NaCl to provide an osmotically balanced environment and instead grown at 30 °C. For strains harboring the pRMC2 tetracycline inducible vector,[61] the growth medium was supplemented with 10 μg/mL chloramphenicol and […] anhydrotetracycline hydrochloride (Sigma). Phenylalanine-arginine β-naphthylamide (PAβN) (Sigma) was dissolved in sterile water.
(§3) B. subtilis, staphylococcal, and enterococcal strains were grown in Mueller Hinton broth (MHB), while streptococcal strains were grown in MHB supplemented with 5% laked horse blood. All strains were grown for 18 h at 37 °C. The overnight cultures were subsequently subcultured 1:200 and grown to the exponential phase (OD600nm = 0.5–0.6) in fresh broth. 1771 and its derivatives 9–14 were reconstituted in DMSO and further diluted by performing a 1:2 serial dilution ranging between 256 and 0.125 μg/mL in a 96-well microtiter plate. One hundred microliters of 0.5 McFarland standardized inoculum (approximately equal to 5 × 10^5 cfu) were then dispensed into each well in the 96-well microtiter plate. The plate was incubated for 18 h at 37 °C.

[5] = tested on: S. epidermidis; assay: MIC, broth microdilution (CLSI); type: cell-based, Staphylococcus epidermidis; settings: Staphylococcus epidermidis, read-out: minimum inhibitory concentration
Description: as §2, §3

[6] = tested on: S. aureus strain SH1000; assay: Biofilm prevention, crystal violet assay; type: cell-based, Staphylococcus aureus; settings: SH1000, 24 h
Description: as §1

[7] = tested on: HL-60 cell line; settings: antibiotics used in the training set, Table S2; cited from earlier work

Oc1cc(Cl)ccc1Oc1ccc(Cl)cc1Cl [triclosan]
substantial decrease in LTA production: LTA signal by Western blot [1]

NC(N)=NCCC[C@H](NC(=O)[C@@H](N)Cc1ccccc1)C(=O)Nc1ccc2ccccc2c1 [PAβN, Phenylalanine-arginine β-naphthylamide] (H-Phe-Arg-βNA)
very limited impact on growth: impact on growth [2]

COc1ccc2c(ccc3occ(CC(=O)OCC(=O)Nc4nnc(-c5ccccc5)o4)c32)c1 [Compound 9, 2-Oxo-2-((5-phenyl-1,3,4-oxadiazol-2-yl)amino)ethyl 2-(7-Methoxynaphtho[2,1-b]furan-1-yl)acetate]
32 to 64 µg/mL: MIC ([4]; strain LAC) | concentration causing a 50% reduction in biofilm formation [6]
32 µg/mL: MIC ([4]; NEWMAN, strain Newman) | MIC ([4]; strain SH1000) | MIC ([4]; strain TW20) | MIC ([5]; strain 780) | MIC ([5]; strain RP62A)
64 µg/mL: MIC ([4]; strain EMRSA-15) | MIC ([4]; strain MRSA252) | MIC ([4]; strain MW2) | MIC ([4]; strain Mu3) | MIC ([4]; strain Mu50) | MIC ([5]; strain 305) | MIC ([5]; strain 311) | MIC ([5]; strain 319) | MIC ([5]; strain 322) | MIC ([5]; strain 771)
4- to 16 fold: fold increase in the MIC when compared to 1771 [4]
16 to 64 µg/mL: concentration causing a 50% reduction in biofilm formation [3]

O=C(COC(=O)Cc1coc2ccc3ccccc3c12)Nc1nnc(-c2ccccc2)s1 [Compound 14, 2-Oxo-2-((5-phenyl-1,3,4-thiadiazol-2-yl)amino)ethyl 2-(Naphtho[2,1-b]furan-1-yl)acetate]
32 to 64 µg/mL: concentration causing a 50% reduction in biofilm formation [6]
4- to 16 fold: fold increase in the MIC when compared to 1771 [4]
> 64 µg/mL: MIC ([4]; NEWMAN, strain Newman) | MIC ([4]; strain EMRSA-15) | MIC ([4]; strain LAC) | MIC ([4]; strain MRSA252) | MIC ([4]; strain MW2) | MIC ([4]; strain Mu3) | MIC ([4]; strain Mu50) | MIC ([4]; strain SH1000) | MIC ([4]; strain TW20) | MIC ([5]; strain 305) | MIC ([5]; strain 311) | MIC ([5]; strain 319) | MIC ([5]; strain 322) | MIC ([5]; strain 771) | MIC ([5]; strain 780) | MIC ([5]; strain RP62A)
16 to 64 µg/mL: concentration causing a 50% reduction in biofilm formation [3]

CN[C@H](CC(C)C)C(=O)N[C@H]1C(=O)N[C@@H](CC(N)=O)C(=O)N[C@H]2C(=O)N[C@H]3C(=O)N[C@H](C(=O)N[C@H](C(=O)O)c4cc(O)cc(O)c4-c4cc3ccc4O)[C@H](O)c3ccc(c(Cl)c3)Oc3cc2cc(c3O[C@@H]2O[C@H](CO)[C@@H](O)[C@H](O)[C@H]2O[C@H]2C[C@](C)(N)[C@H](O)[C@H](C)O2)Oc2ccc(cc2Cl)[C@H]1O [vancomycin]
No reduction in LTA: LTA signal by Western blot [1]
0.16: Cell health index (CHI) [7]

Source: paper PMC10644342, “Improved Antibacterial Activity of 1,3,4-Oxadiazole-Based Compounds That Restrict Staphylococcus aureus Growth Independent of LtaS Function” (ACS Infectious Diseases, 2023)
